Bounds are passed on as bounds.

The target of experiment [1] is T1, PRMT5 (Homo sapiens, UniProt O14744).
T1 construct: purchased Viva (custom protein)
The experiment in a line: PRMT5 biochemical IC50 assay with no cofactor. The settings on record: PRMT5, no cofactor. An excerpt: Table 1 indicates IC50 values (μM) against PRMT5 for exemplary compounds in the presence of SAM as cofactor, with no cofactor, and with MTA as cofactor, respectively (columns 4-6). […] Ki values can be calculated from the IC50 values as described in the Examples section. As detailed in the Examples section, for the assay performed in the presence of SAM, IC50=Ki×1.5 (Ki=IC50/1.5).

In experiment [2] the test system is HAP1 MTAP-deleted cell line. The experiment is described as follows: Viability assay, MTAP-deleted cell line. Type of experiment: cell-based. The settings on record: Homo sapiens, read-out: HAP1 MTAP deleted viability. An excerpt:
Table 1 additionally indicates IC50 values in a viability assay for the MTAP-deleted cell line (column 10), indicating the effect of treatment with compound on cell survival.

The target in experiment [3] is T1, PRMT5. The experiment in a line: PRMT5 biochemical IC50 assay with SAM as cofactor. The settings on record: PRMT5, SAM as cofactor; read-out: SAM IC50.
In experiment [4] the target is T1, PRMT5. The experiment in a line: PRMT5 biochemical IC50 assay with MTA as cofactor. The following applies: PRMT5, MTA as cofactor; read-out: MTA IC50.
For experiment [5], the system named is HAP1 MTAP-deleted cell line. The experiment in a line: SDMA in-cell western assay, HAP1 MTAP-deleted. The following applies: for IC50: Homo sapiens, HAP1, SDMA in-cell western, HAP1 MTAP-deleted; for MTAP intact/deleted ratio: SDMA in-cell western. The experiment is classed as cell-based. In outline:
(§1)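 Compounds were tested in HAP1 cells differing only in MTAP status (endogenous expression versus null). Cellular SDMA levels were then measured by in-cell western, giving an IC50 in each background.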

Experiment [6] concerns HAP1 MTAP-intact cell line. The experiment in a line: SDMA in-cell western assay, HAP1 MTAP-intact. Type of experiment: cell-based. The settings on record: Homo sapiens, HAP1, SDMA in-cell western, HAP1 MTAP-intact; read-out: MTAP HAP1 intact IC50. In outline:
as §1

[7] abbreviates: read-out: No Cofactor/ rel IC50.
The mark [8] stands for this setting: HAP1, viability, HAP1 MTAP-deleted cell line.
Setting [9] is: read-out: HAP 1 MTAP deleted IC50.
[10] abbreviates: IC50 ratio HAP1 MTAP-intact / HAP1 MTAP-deleted.
Setting [11] is: HAP1, viability assay, MTAP-deleted cell line.

T1 sequence (O14744 whole entry): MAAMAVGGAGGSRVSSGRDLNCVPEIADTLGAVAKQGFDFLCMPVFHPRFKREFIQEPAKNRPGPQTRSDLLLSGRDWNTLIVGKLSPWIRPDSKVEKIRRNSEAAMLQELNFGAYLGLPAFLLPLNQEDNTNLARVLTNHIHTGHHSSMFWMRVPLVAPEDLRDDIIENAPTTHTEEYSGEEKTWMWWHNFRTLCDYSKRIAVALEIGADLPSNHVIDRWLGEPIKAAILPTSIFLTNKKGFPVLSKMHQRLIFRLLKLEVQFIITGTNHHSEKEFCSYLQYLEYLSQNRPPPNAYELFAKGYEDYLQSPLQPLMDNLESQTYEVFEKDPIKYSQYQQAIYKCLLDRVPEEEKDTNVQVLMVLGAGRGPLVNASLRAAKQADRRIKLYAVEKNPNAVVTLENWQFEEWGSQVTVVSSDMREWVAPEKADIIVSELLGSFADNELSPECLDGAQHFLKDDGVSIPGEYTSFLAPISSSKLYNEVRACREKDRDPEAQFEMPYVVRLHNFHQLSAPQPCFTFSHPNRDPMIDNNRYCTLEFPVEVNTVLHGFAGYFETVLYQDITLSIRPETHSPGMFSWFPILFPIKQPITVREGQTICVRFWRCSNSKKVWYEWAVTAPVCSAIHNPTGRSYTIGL
T1 sequence (Q9BQA1 whole entry partner): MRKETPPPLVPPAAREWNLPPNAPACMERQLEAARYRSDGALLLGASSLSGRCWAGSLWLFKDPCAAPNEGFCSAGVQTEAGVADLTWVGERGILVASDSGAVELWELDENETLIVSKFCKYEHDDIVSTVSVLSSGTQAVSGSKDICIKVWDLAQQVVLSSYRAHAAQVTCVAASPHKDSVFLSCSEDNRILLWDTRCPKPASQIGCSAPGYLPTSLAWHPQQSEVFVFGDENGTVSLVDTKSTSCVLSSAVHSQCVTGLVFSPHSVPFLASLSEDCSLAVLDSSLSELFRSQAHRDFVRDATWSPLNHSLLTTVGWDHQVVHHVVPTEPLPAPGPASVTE

As for `CCc1cc(NC(=O)C(=O)N2C[C@@H](C)[C@H](OC(C)C)C[C@@H]2c2ccc3scnc3c2)cnc1N` (racemic) [Compound 1343, N-(6-Amino-5-ethyl-3-pyridyl)-2-[(2S,4S,5S)-2-(1,3-benzothiazol-5-yl)-4-isopropoxy-5-methyl-1-piperidyl]-2-oxo-acetamide], the IC50 on PRMT5 [1] (setting [7]) is 0.05 to 0.5 µM; in experiment [2] (setting [8]), < 1 µM; on PRMT5 [3], 0.05 to 0.5 µM; at PRMT5 [4] it was 0.05 to 0.5 µM; in experiment [5] (setting [9]) it was < 0.1 µM; in experiment [6], 0.1 to 1 µM. Besides, the “MTAP intact/deleted ratio” value in experiment [5] (setting [10]) is “A (an IC50 ratio greater than or equal to 10 fold)”.

Regarding `C[C@@H]1CC[C@@H](c2ccc3sc(CCN(C)C)nc3c2)N(C(=O)C(=O)Nc2cncc(C(N)=O)c2)C1` (racemic) [Compound 1355, 5-(2-(2-(2-(2-(dimethylamino)ethyl)benzo[d]thiazol-5-yl)-5-methylpiperidin-1-yl)-2-oxoacetamido)nicotinamide], the IC50 on PRMT5 [1] (setting [7]) was 0.05 to 0.5 µM; in experiment [2] (setting [8]), < 1 µM; at PRMT5 [3] it was 0.05 to 0.5 µM; on PRMT5 [4] it was < 0.05 µM; in experiment [5] (setting [9]) it was < 0.1 µM; in experiment [6], 0.1 to 1 µM. Besides, the “MTAP intact/deleted ratio” value in experiment [5] (setting [10]) is given as “A (an IC50 ratio greater than or equal to 10 fold)”.

For `CCc1cc(NC(=O)C(=O)N2CC(C)CCC2c2ccc3sc(C4CCN(C)CC4C)nc3c2)cnc1N` (racemic) [Compound 1373, N-(6-amino-5-ethyl-3-pyridyl)-2-oxo-2-[rac-(2R,5S)-5-methyl-2-[2-[rac-(3S,4S)-1,3-dimethyl-4-piperidyl]-1,3-benzothiazol-5-yl]-1-piperidyl]acetamide], the IC50 was < 0.05 µM on PRMT5 [1] (setting [7]); < 1 µM in experiment [2] (setting [8]); < 0.05 µM at PRMT5 [3]; < 0.05 µM on PRMT5 [4]; < 0.1 µM in experiment [5] (setting [9]); < 0.1 µM in experiment [6]. For the same molecule, in experiment [5] (setting [10]), the “MTAP intact/deleted ratio” value is “B (an IC50 ratio greater than or equal to 3 fold but lower than 10 fold)”.

For `CCc1cc(NC(=O)C(=O)N2C[C@@H](C)CC[C@@H]2c2ccc(N3CCN(CC)CC3)c(C)c2)cnc1N` (racemic) [Compound 1376, N-(6-Amino-5-ethyl-3-pyridyl)-2-oxo-2-[rac-(2R,5S)-2-[4-(4-ethylpiperazin-1-yl)-3-methyl-phenyl]-5-methyl-1-piperidyl]acetamide], the IC50 at PRMT5 [1] (setting [7]) is < 0.05 µM; in experiment [2] (setting [8]), < 1 µM; at PRMT5 [3], 0.05 to 0.5 µM; at PRMT5 [4] it was < 0.05 µM; in experiment [5] (setting [9]), < 0.1 µM; in experiment [6], 0.1 to 1 µM. For the same molecule, the “MTAP intact/deleted ratio” value in experiment [5] (setting [10]) was “A (an IC50 ratio greater than or equal to 10 fold)”.

Regarding `CCc1cc(NC(=O)C(=O)N2C[C@@H](C)CC[C@@H]2c2ccc3nn([C@@H]4CCN(C)C4)cc3c2)cnc1N` (racemic) [Compound 1398, N-(6-Amino-5-ethyl-3-pyridyl)-2-oxo-2-[rac-(2R,5S)-5-methyl-2-[2-[rac-(3R)-1-methylpyrrolidin-3-yl]indazol-5-yl]-1-piperidyl]acetamide], the IC50 at PRMT5 [1] (setting [7]) is 0.05 to 0.5 µM; in experiment [2] (setting [8]) it was < 1 µM; at PRMT5 [3], 0.05 to 0.5 µM; at PRMT5 [4] it was < 0.05 µM; in experiment [5] (setting [9]), < 0.1 µM; in experiment [6], < 0.1 µM. Also, the “MTAP intact/deleted ratio” value in experiment [5] (setting [10]) is recorded as “A (an IC50 ratio greater than or equal to 10 fold)”.

As for `Cc1cc(NC(=O)C(=O)N2C[C@H](C)CC[C@H]2c2ccc3c(c2)CCC(=O)N3)cnc1C` (relative stereo) [Compound 632], the IC50 at PRMT5 [1] (read-out: No Cofactor/rel IC50) was < 0.05 µM; in experiment [2] (HAP1, viability IC50, MTAP-deleted cell line) it was < 1 µM; on PRMT5 [3] it was 0.05 to 0.5 µM; at PRMT5 [4], < 0.05 µM; in experiment [5] (setting [9]) it was < 0.1 µM; in experiment [6] it was 0.1 to 1 µM. For the same molecule, in experiment [5] (setting [10]), the MTAP intact/deleted ratio result is listed as “A (an IC50 ratio greater than or equal to 10 fold)”.

Regarding `CO[C@H]1C[C@H](c2ccc3scnc3c2)N(C(=O)C(=O)Nc2cnc(N)c(C)c2)C[C@H]1C` (relative stereo) [Compound 1216], the IC50 was < 0.05 µM at PRMT5 [1] (read-out: No Cofactor/rel IC50); < 1 µM in experiment [2] (setting [11]); 0.05 to 0.5 µM at PRMT5 [3]; < 0.05 µM at PRMT5 [4]; < 0.1 µM in experiment [5] (read-out: HAP1 MTAP deleted IC50); < 0.1 µM in experiment [6]. In addition, the MTAP intact/deleted ratio result in experiment [5] (IC50 ratio HAP1 MTAP-intact vs HAP1 MTAP-deleted) was “B (an IC50 ratio greater than or equal to 3 fold but lower than 10 fold)”.

As to `CCc1cc(NC(=O)C(=O)N2C[C@@H](C)CC[C@@H]2c2ccc3sc(C(F)(F)CN(C)C)nc3c2)cnc1N` (relative stereo) [Compound 1280], the IC50 was < 0.05 µM on PRMT5 [1] (setting [7]); < 1 µM in experiment [2] (setting [8]); 0.05 to 0.5 µM at PRMT5 [3]; < 0.05 µM at PRMT5 [4]; < 0.1 µM in experiment [5] (setting [9]); 0.1 to 1 µM in experiment [6]. Moreover, the “MTAP intact/deleted ratio” value in experiment [5] (setting [10]) is reported as “A (an IC50 ratio greater than or equal to 10 fold)”.

On to `CCc1cc(NC(=O)C(=O)N2C[C@@H](C)CC[C@@H]2c2ccc(N3CC[C@@H]4CN(C)C[C@@H]4C3)cc2)cnc1N` (relative stereo) [Compound 1349], for which the IC50 on PRMT5 [1] (setting [7]) is < 0.05 µM; in experiment [2] (setting [8]), < 1 µM; at PRMT5 [3], 0.05 to 0.5 µM; at PRMT5 [4], < 0.05 µM; in experiment [5] (setting [9]) it was < 0.1 µM; in experiment [6] it was 0.1 to 1 µM. Further, the “MTAP intact/deleted ratio” value in experiment [5] (setting [10]) was “A (an IC50 ratio greater than or equal to 10 fold)”.

Take `Cc1cncc(NC(=O)C(=O)N2C[C@H](C)CC[C@H]2c2cccc(C)c2)c1` (single isomer, unassigned) [Compound 10]: the IC50 at PRMT5 [1] (setting [7]) was 0.05 to 0.5 µM; in experiment [2] (setting [11]), > 10 µM; at PRMT5 [3], 0.05 to 0.5 µM; at PRMT5 [4] it was 0.05 to 0.5 µM; in experiment [5] (setting [9]) it was > 1 µM; in experiment [6] it was > 1 µM. Besides, in experiment [5] (setting [10]), the “MTAP intact/deleted ratio” value is “B (an IC50 ratio greater than or equal to 3 fold but lower than 10 fold)”.

`Cc1cncc(NC(=O)C(=O)N2C[C@@H](C)CC[C@@H]2c2cccc(C)c2)c1` (single isomer, unassigned) [Compound 11]: the IC50 on PRMT5 [1] (setting [7]) was > 0.5 µM; in experiment [2] (setting [11]), > 10 µM; at PRMT5 [3], > 0.5 µM; on PRMT5 [4] it was > 0.5 µM; in experiment [5] (setting [9]), > 1 µM; in experiment [6], > 1 µM. In addition, the “MTAP intact/deleted ratio” value in experiment [5] (setting [10]) is “C (an IC50 ratio of less than 3 fold)”.

`Cc1ccc([C@@H]2CC[C@@H](C)CN2C(=O)C(=O)Nc2cncc(C)c2)cc1` (single isomer, unassigned) [Compound 16]: the IC50 was > 0.5 µM on PRMT5 [1] (setting [7]); > 10 µM in experiment [2] (setting [11]); > 0.5 µM at PRMT5 [3]; 0.05 to 0.5 µM at PRMT5 [4]; > 1 µM in experiment [5] (setting [9]); > 1 µM in experiment [6]. For the same molecule, the “MTAP intact/deleted ratio” value in experiment [5] (setting [10]) is “B (an IC50 ratio greater than or equal to 3 fold but lower than 10 fold)”.

In the case of `CC[C@@H]1CC[C@@H](c2ccccc2)N(C(=O)C(=O)Nc2cncc(C)c2)C1` (single isomer, unassigned) [Compound 17], the IC50 is > 0.5 µM on PRMT5 [1] (setting [7]); > 10 µM in experiment [2] (setting [11]); > 0.5 µM on PRMT5 [3]; 0.05 to 0.5 µM on PRMT5 [4]; > 1 µM in experiment [5] (setting [9]); > 1 µM in experiment [6]. Moreover, in experiment [5] (setting [10]), the “MTAP intact/deleted ratio” value is “B (an IC50 ratio greater than or equal to 3 fold but lower than 10 fold)”.

For the molecule `Cc1cncc(NC(=O)C(=O)N2C[C@H](C)CC[C@H]2c2ccc(C)c(C)c2)c1` (single isomer, unassigned) [Compound 21], the IC50 at PRMT5 [1] (setting [7]) was 0.05 to 0.5 µM; in experiment [2] (setting [11]), > 10 µM; on PRMT5 [3], 0.05 to 0.5 µM; at PRMT5 [4] it was 0.05 to 0.5 µM; in experiment [5] (setting [9]) it was > 1 µM; in experiment [6], > 1 µM. The “MTAP intact/deleted ratio” value in experiment [5] (setting [10]) is “B (an IC50 ratio greater than or equal to 3 fold but lower than 10 fold)”.

`Cc1cc(NC(=O)C(=O)N2CCCC[C@H]2c2cccs2)cnc1N` (single isomer, unassigned) [Compound 22]: the IC50 on PRMT5 [1] (setting [7]) is > 0.5 µM; in experiment [2] (setting [11]), > 10 µM; at PRMT5 [3], > 0.5 µM; on PRMT5 [4], 0.05 to 0.5 µM; in experiment [5] (setting [9]), > 1 µM; in experiment [6], > 1 µM. Further, the “MTAP intact/deleted ratio” value in experiment [5] (setting [10]) is on record as “B (an IC50 ratio greater than or equal to 3 fold but lower than 10 fold)”.

`Cc1cc(NC(=O)C(=O)N2CCCC[C@@H]2c2cccs2)cnc1N` (single isomer, unassigned) [Compound 24]: the IC50 was 0.05 to 0.5 µM on PRMT5 [1] (setting [7]); > 10 µM in experiment [2] (setting [11]); 0.05 to 0.5 µM at PRMT5 [3]; < 0.05 µM at PRMT5 [4]; < 0.1 µM in experiment [5] (setting [9]); > 1 µM in experiment [6]. In experiment [5] (setting [10]), the “MTAP intact/deleted ratio” value is on record as “A (an IC50 ratio greater than or equal to 10 fold)”.

For the origin of these results see patent publication US11999727B2 (Tango Therapeutics, Inc., priority 2020, dated 2024).
